The values that follow come from article PMC11995724, “Antibiotic target discovery by integrated phenotypic and activity-based profiling of electrophilic fragments” (Cell chemical biology, 2025).

This data set in a line: in vitro. Particulars: human, hek293t cells.
As to `N#CC(=Cc1ccccc1O)C(=O)Nc1cccc2ncccc12` [9-G04, 2-cyano-3-(2-hydroxyphenyl)-N-(quinolin-5-yl)prop-2-enamide], the viability at 48 h, 25 µM stood at 123%.
Turning to `N#CC(=Cc1cccc2c1OCCCO2)C(=O)NCc1ccccc1` [9-G05, N-benzyl-2-cyano-3-(3,4-dihydro-2H-1,5-benzodioxepin-6-yl)prop-2-enamide], the viability at 48 h, 25 µM worked out at 114%.
Next, `CCOc1cc(C=C(C#N)C(=O)Nc2cccc(C)c2)ccc1O` [9-G06, 2-cyano-3-(3-ethoxy-4-hydroxyphenyl)-N-(3-methylphenyl)prop-2-enamide]: 105%; `CCCn1c(C)cc(C=C(C#N)C(=O)Nc2ccc3c(c2)OCO3)c1C` [9-G07, N-(1,3-dioxaindan-5-yl)-2-cyano-3-(2,5-dimethyl-1-propyl-1H-pyrrol-3-yl)prop-2-enamide]: 100%.
Turning to `COc1cccc(C=C(C#N)C(=O)Nc2ccccc2C(=O)O)c1` [9-G08, 2-[2-cyano-3-(3-methoxyphenyl)prop-2-enamido]benzoic acid], the viability at 48 h, 25 µM stood at 102%.
On to `COc1ccc(NC(=O)C(C#N)=Cc2c(Cl)nc3ccccn23)cc1` [9-G09, 3-{2-chloroimidazo[1,2-a]pyridin-3-yl}-2-cyano-N-(4-methoxyphenyl)prop-2-enamide], for which the viability at 48 h, 25 µM came out at 121%.
For `N#CC(=Cc1ccc(O)c([N+](=O)[O-])c1)C(=O)Nc1ccccc1C(=O)O` [9-G10, 2-[2-cyano-3-(4-hydroxy-3-nitrophenyl)prop-2-enamido]benzoic acid], the viability at 48 h, 25 µM turned out to be 118%.
Next, `CCCCNC(=O)C(C#N)=Cc1ccc2c(c1)OCCO2` [9-G11, N-butyl-2-cyano-3-(2,3-dihydro-1,4-benzodioxin-6-yl)prop-2-enamide]: 106%.
With `COc1cc(C=C(C#N)C(=O)NC2CC2)ccc1O` [9-G12, 2-cyano-N-cyclopropyl-3-(4-hydroxy-3-methoxyphenyl)prop-2-enamide], the viability at 48 h, 25 µM stood at 110%.
On to `N#CC(=Cc1ccc(Cl)cc1)C(=O)NCc1ccccc1` [9-G13, N-benzyl-3-(4-chlorophenyl)-2-cyanoprop-2-enamide], for which the viability at 48 h, 25 µM turned out to be 104%.
As for `COc1ccc(C=C(C#N)C(=O)Nc2ccc(C(=O)O)cc2)cc1C` [9-G14, 4-[2-cyano-3-(4-methoxy-3-methylphenyl)prop-2-enamido]benzoic acid], the figure is 108%; as for `N#CC(=Cc1ccc(OC(F)F)cc1)C(=O)Nc1ccccc1` [9-G15, 2-cyano-3-[4-(difluoromethoxy)phenyl]-N-phenylprop-2-enamide], 139%; as for `CC1CC1c1ccc(C=C(C#N)C(=O)Nc2ccc(C(=O)O)cc2)o1` (stereo not drawn) [9-G16, 4-{2-cyano-3-[5-(2-methylcyclopropyl)furan-2-yl]prop-2-enamido}benzoic acid], 133%.
Next, `Cc1cccc(C)c1NC(=O)C(C#N)=Cc1ccc(C(=O)O)cc1` [9-G17, 4-{2-cyano-2-[(2,6-dimethylphenyl)carbamoyl]eth-1-en-1-yl}benzoic acid]: 111%; `N#CC(=Cc1ccc(-c2cccc([N+](=O)[O-])c2)s1)C(=O)NC1CC1` [9-G18, 2-cyano-N-cyclopropyl-3-[5-(3-nitrophenyl)thiophen-2-yl]prop-2-enamide]: 103%.
Take `Cc1ccc(NC(=O)C(C#N)=Cc2ccc(OC(F)F)cc2)c(C)c1` [9-G19, 2-cyano-3-[4-(difluoromethoxy)phenyl]-N-(2,4-dimethylphenyl)prop-2-enamide]: the viability at 48 h, 25 µM was found to be 90.4%.
Take `COc1cc(C=C(C#N)C(=O)Nc2cccc(Cl)c2)cc(O)c1O` [9-G20, N-(3-chlorophenyl)-2-cyano-3-(3,4-dihydroxy-5-methoxyphenyl)prop-2-enamide]: the viability at 48 h, 25 µM was found to be 72.4%.
On to `Cn1c(CNC=C(C#N)C(=O)Nc2ccccc2)cc(=O)n(C)c1=O` [9-G21, 2-cyano-3-{[(1,3-dimethyl-2,6-dioxo-1,2,3,6-tetrahydropyrimidin-4-yl)methyl]amino}-N-phenylprop-2-enamide], for which the viability at 48 h, 25 µM is 115%.
As for `N#CC(=Cc1ccc(O)cc1)C(=O)Nc1ccc(Cl)cc1Cl` [9-G22, 2-cyano-N-(2,4-dichlorophenyl)-3-(4-hydroxyphenyl)prop-2-enamide], the figure is 82.3%; as for `Cc1ccc(NC(=O)C(C#N)=Cc2ccc3c(c2)OCCO3)c(C)c1` [9-H03, 2-cyano-3-(2,3-dihydro-1,4-benzodioxin-6-yl)-N-(2,4-dimethylphenyl)prop-2-enamide], 107%.
Next, `CC(NC(=O)C(C#N)=Cc1ccco1)c1cccc(-n2ccnc2)c1` (stereo not drawn) [9-H04, 2-cyano-3-(furan-2-yl)-N-{1-[3-(1H-imidazol-1-yl)phenyl]ethyl}prop-2-enamide]: 127%; `C=CCNC(=O)C(C#N)=Cc1ccccc1OC` [9-H05, 2-cyano-3-(2-methoxyphenyl)-N-(prop-2-en-1-yl)prop-2-enamide]: 114%.
For `Cc1ncsc1C=C(C#N)C(=O)NCCc1ccccc1` [9-H06, 2-cyano-3-(4-methyl-1,3-thiazol-5-yl)-N-(2-phenylethyl)prop-2-enamide], the viability at 48 h, 25 µM was found to be 99.1%.
Next, `C=CCNC(=O)C(C#N)=Cc1cc(F)ccc1F` [9-H07, 2-cyano-3-(2,5-difluorophenyl)-N-(prop-2-en-1-yl)prop-2-enamide]: 111%.
On to `COCCNC(=O)C(C#N)=Cc1cccc(O)c1` [9-H08, 2-cyano-3-(3-hydroxyphenyl)-N-(2-methoxyethyl)prop-2-enamide], for which the viability at 48 h, 25 µM amounted to 121%.
Next, `COCC(C)NC(=O)C(C#N)=Cc1ccc(F)c(C)c1` (stereo not drawn) [9-H09, 2-cyano-3-(4-fluoro-3-methylphenyl)-N-(1-methoxypropan-2-yl)prop-2-enamide]: 108%.
As for `N#CC(=Cc1ccc(-c2ccccc2F)o1)C(=O)NCc1ccccc1` [9-H10, N-benzyl-2-cyano-3-[5-(2-fluorophenyl)furan-2-yl]prop-2-enamide], the figure is 92.7%; as for `CCCCNC(=O)C(C#N)=Cc1cccc(Cl)c1Cl` [9-H11, N-butyl-2-cyano-3-(2,3-dichlorophenyl)prop-2-enamide], 24.1%.
Next, `Cc1nccn1Cc1ccc(NC(=O)C(C#N)=Cc2ccco2)cc1` [9-H12, 2-cyano-3-(furan-2-yl)-N-{4-[(2-methyl-1H-imidazol-1-yl)methyl]phenyl}prop-2-enamide]: 93%; `CCCCNC(=O)C(C#N)=Cc1ccc(Cl)cc1` [9-H13, N-butyl-3-(4-chlorophenyl)-2-cyanoprop-2-enamide]: 72.9%.
Turning to `COc1ccc(C=C(C#N)C(N)=O)c(Cl)c1OC` [9-H14, 3-(2-chloro-3,4-dimethoxyphenyl)-2-cyanoprop-2-enamide], the viability at 48 h, 25 µM was 105%.
Next, `N#CC(=Cc1ccc(N2CCCCCC2)cc1)C(=O)NCC1CCCO1` (stereo not drawn) [9-H15, 3-[4-(azepan-1-yl)phenyl]-2-cyano-N-[(oxolan-2-yl)methyl]prop-2-enamide]: 71.9%; `N#CC(=Cc1ccc(Cl)cc1)C(=O)Nc1ccccn1` [9-H16, 3-(4-chlorophenyl)-2-cyano-N-(pyridin-2-yl)prop-2-enamide]: 128%.
